This note sets out measurements from patent publication US20240358733A1, “APPLICATION OF TYPHANEOSIDE IN PREPARATION OF MEDICINE FOR URIC ACID-LOWERING AND/OR KIDNEY INJURY” (Institute of Chinese Materia Medica, China Academy of …, priority 2023, published 2024).

For test [1], the system named is rats with hyperuricemia. The experiment in a line: Urate deposition in rat kidney tissues, hexamine silver staining. Type of test: in vivo. Conditions: FIG. 1, hexamine silver staining, 25 and 50 mg/kg, in words. As for the experimental part: (§1) The establishment of the model as well as the experimental grouping and administration were the same as in Example 1.
(§2) (2) Pathological examination of kidney tissue: anesthetize rats, dissect, and remove kidney tissue. The kidney tissues were fixed with 10% neutral formalin. After sufficient fixation, sampling, gradient dehydration, xylene transparency, paraffin embedding, and preparation of 3 μm paraffin sections were performed according to routine procedures. The kidney tissue lesions as well as urate deposition in the kidney tissues were examined by light microscopy using HE (hematoxylin & eosin) staining and hexamine silver staining, respectively.

Test [2] deals with rats with hyperuricemia. The test can be described thus: Blood uric acid level in rats with adenine combined with ethambutol-induced hyperuricemia. In kind it is in vivo, rat. The conditions noted are these: for Blood uric acid: serum, mean±SD, model group 144.43 ± 31.20. As for the experimental part:
There were 48 Male SPF grade SD rats, weighing 200-220 g, purchased from Beijing Vital River Laboratory Animal Technology Co., Ltd., license No. SCXK (Beijing) 2016-0006. The animals were housed in a barrier environment animal laboratory, with automatic temperature control (temperature 20-26° C.), relative humidity 40-70%, and full fresh air. Artificial light was adopted with a 12-hour light-dark cycle. Group experiments were started after 1 day of acclimatization. Animals were fed with standard rat pellet feed, provided by Beijing Keao Xieli Feed Co. Ltd., with purified water.
The rats were randomly divided into 6 groups of 8 rats each, which were control group, model group, typhaneoside low dose group (25 mg/kg) and typhaneoside high dose group (50 mg/kg), isorhamnetin low dose group (25 mg/kg) and isorhamnetin high dose group (50 mg/kg).
Adenine was purchased from Sigma-Aldrich (USA), and 0.5% CMC-Na was used to formulate adenine into a suspension at a concentration of 20 mg/mL, ready-to-use, with an administration volume of 5 mL/kg and a dosage of 100 mg/kg. Ethambutol hydrochloride tablets were purchased from Chengdu Jinhua Pharmaceutical Co., Ltd, and 0.5% CMC-Na was used to formulate ethambutol hydrochloride tablets into a suspension at a concentration of 50 mg/ml, ready-to-use, with an administration volume of 5 mL/kg and a dosage of 250 mg/kg. […]
Observation and detection indicators: fasting for 16 hours after the last administration, blood was collected from the abdominal aorta of rats in each group, centrifuged at 3500 rpm for 15 minutes after standing, separated and collected serum, and the content of uric acid in the serum was measured using an Automatic Chemical Analysis.
Statistical methods: data were expressed as mean±standard deviation (x±S) and analyzed by one-way ANOVA. […]

Test [3] concerns rats with hyperuricemic kidney injury. The experiment in a line: Kidney function biochemical indicators (serum BUN, SCr) in rats with hyperuricemic kidney injury. In kind it is in vivo, rat. The conditions noted are these: for BUN / SCr: serum; for BUN: model group 11.87 ± 2.27; for SCr: model group 49.09 ± 9.42.
From the text: as §1
(1) Kidney function biochemical indicators detection: the method of blood sampling and serum collection was the same as in Example 1, and an Automatic Chemical Analysis was used to detect the content of serum creatinine (SCr) by using the creatine oxidase method, and to detect the content of blood urea nitrogen (BUN) by using the urease method and the kinetic method.

The test system of test [4] is rats with hyperuricemia. The test can be described thus: Pathological examination of rat kidney tissue, HE staining. In kind it is in vivo. The conditions noted are these: FIG. 2, HE staining, in words. As for the experimental part: as §1, §2
The mark [5] stands for this setting: high dose 50 mg/kg by gavage once a day for 7 days.
Setting [6] is: low dose 25 mg/kg by gavage once a day for 7 days.

For `COc1cc(-c2oc3cc(O)cc(O)c3c(=O)c2O)ccc1O` [Isorhamnetin, isorhamnetin], the “Deposited urate crystals in kidney tissue compared with the model group” value in test [1] was “only slightly reduced”. For the same compound, the “Effect on the blood uric acid level compared with the model group” value in test [2] (different doses (25 and 50 mg/kg), in words) is “did not show a significant reducing effect”. The results for the Blood uric acid in test [2] (setting [5]) and in test [2] (setting [6]) were 105.74 ± 42.62 µmol/L and 118.56 ± 26.76 µmol/L, respectively. Also, in test [3] (25 and 50 mg/kg, in words), the “Serum BUN level compared with the model group” value is “did not show significant reduction”. Also, in test [3] (25 and 50 mg/kg, in words), the “Serum SCr level compared with the model group” value is “did not show significant reduction”. The figures for the BUN in test [3] (setting [5]) and in test [3] (setting [6]) were 8.26 ± 3.99 mmol/L and 7.90 ± 2.48 mmol/L, respectively. For the same compound, the figures for the SCr in test [3] (setting [5]) and in test [3] (setting [6]) were 47.12 ± 12.00 µmol/L and 41.66 ± 5.72 µmol/L, respectively. The “Kidney tissue pathological changes” value in test [4] (high dose group 50 mg/kg) is “severe renal tubular dilatation and epithelial cell detachment were still observed”; in test [4] (low dose group 25 mg/kg), “severe renal tubular dilatation and epithelial cell detachment were still observed”.
